Assay results reported in article PMC9151520 (Archives of Toxicology, 2022).
Values joined by “and” are separate entries in the source; they are usually repeats but may differ in a detail not shown here. Equal values may be shown once. Read-outs that look alike come from different tables or passages of the source.

Key:
[1] = tested on: p53 signaling (p53RE-bla HCT-116 cells); experiment: cells; assay type: cell-based
[2] = tested on: p53 signaling (p53RE-bla HCT-116 cells)
[3] = tested on: p53 signaling (p53RE-bla HCT-116 cells); conditions: for EC50: read-out: p53 activation EC50, HLM
[4] = read-out: p53 activation EC50, cherry pick confirmation
[5] = read-out: p53 activation EC50, primary screening
[6] = Homo sapiens, HCT-116, read-out: p53 activation EC50, cherry pick confirmation
[7] = Homo sapiens, HCT-116, read-out: p53 activation EC50, primary screening
[8] = Homo sapiens, HCT-116, read-out: p53 activation efficacy, cherry pick confirmation
[9] = Homo sapiens, HCT-116, read-out: p53 activation efficacy, primary screening
[10] = read-out: Viability EC50, cherry pick confirmation
[11] = Homo sapiens, HCT-116, read-out: EC50, p53 activation, primary screening
[12] = Homo sapiens, HCT-116, read-out: Efficacy, p53 activation, primary screening

Row | Molecule | p53 activation efficacy, cherry pick confirmation [1] | p53 activation efficacy, primary screening [1] | p53 activation EC50, cherry pick confirmation [2] | p53 activation EC50, primary screening [2] | p53 activation efficacy, cherry pick confirmation [2] | p53 activation efficacy, primary screening [2] | p53 activation EC50, cherry pick confirmation [3] | p53 activation EC50, primary screening [3] | p53 activation efficacy, cherry pick confirmation [3] | p53 activation efficacy, primary screening [3] | Viability EC50, cherry pick confirmation (p53RE-bla HCT-116 cells) | Viability EC50, primary screening (p53RE-bla HCT-116 cells) | Viability efficacy, cherry pick confirmation (p53RE-bla HCT-116 cells) | Viability efficacy, primary screening (p53RE-bla HCT-116 cells) | other results
1 | CN1C(=O)N(c2ccccc2Br)Cc2cnc(Nc3ccc4c(c3)OCC(CO)O4)nc21 (stereo not shown) [PharmaGSID_48519] | 31.694 | 31.571 | inactive | inactive | inactive | inactive | inactive | inactive | inactive | inactive | inactive | inactive | inactive | inactive | EC50 [1, 4]: 13.6 µM; EC50 [1, 5]: 9.59 µM
2 | Oc1ccc(OCc2ccccc2)cc1 [4-(Benzyloxyl)phenol] | – | – | inactive | inactive | inactive | inactive | inactive | inactive | inactive | inactive | inactive | inactive | inactive | inactive | EC50 [1, 6]: 14 µM; EC50 [1, 7]: 18.6 µM; Emax [1, 8]: 39%; Emax [1, 9]: 33.5%
3 | CCS(=O)(=O)CCSP(=O)(OC)OC [Demeton-S-methylsulphon] | – | – | – | – | – | – | – | – | – | – | – | – | – | – | p53 activation EC50 [1]: inactive; p53 activation efficacy [1]: inactive; EC50 [2]: 11.8 µM; p53 activation efficacy [2]: 41.936 and 34.343; p53 activation EC50 [3]: inactive; Viability EC50 (p53RE-bla HCT-116 cells): inactive; Viability efficacy (p53RE-bla HCT-116 cells): inactive
4 | N[C@@H](Cc1ccc(N(CCCl)CCCl)cc1)C(=O)O [Melphalan] | – | – | inactive | inactive | inactive | inactive | inactive | inactive | inactive | inactive | inactive | inactive | inactive | inactive | EC50 [1, 6]: 15.6 µM; EC50 [1, 7]: 17.8 µM; Emax [1, 8]: 43.3%; Emax [1, 9]: 46.7%
5 | CC(=O)OC[C@H]1O[C@@H](n2ncc(=O)[nH]c2=O)[C@H](OC(C)=O)[C@@H]1OC(C)=O [6-Azaribine] | – | – | inactive | inactive | inactive | inactive | inactive | inactive | inactive | inactive | inactive | inactive | inactive | inactive | EC50 [1, 6]: 0.603 µM; EC50 [1, 7]: 0.432 µM; Emax [1, 8]: 79.7%; Emax [1, 9]: 60.2%
6 | Tricyclodecanedimethanol diacrylate | 41.6463 | 37.7867 | inactive | inactive | inactive | inactive | inactive | inactive | inactive | inactive | inactive | inactive | – | – | EC50 [1, 4]: 30.6 µM; EC50 [1, 5]: 44.5 µM; EC50 (p53RE-bla HCT-116 cells; [10]): 49.4 µM; EC50 (p53RE-bla HCT-116 cells; read-out: Viability EC50, primary screening): 49.5 µM
7 | CCN(CC)c1ccc2c(C)cc(=O)oc2c1 [7-Diethylamino-4-methylcoumarin] | – | – | – | – | – | – | – | – | – | – | – | – | – | – | EC50 ([1]; read-out: p53 activation EC50, No MS): 13 µM and 25.2 µM; p53 activation EC50, RLM [2]: inactive; p53 activation Efficacy, RLM [2]: inactive; p53 activation EC50, HLM [3]: inactive; EC50 [3]: 41.1 µM; Viability EC50, HLM (p53RE-bla HCT-116 cells): inactive; Viability EC50, No MS (p53RE-bla HCT-116 cells): inactive; Viability EC50, RLM (p53RE-bla HCT-116 cells): inactive; Viability Efficacy, HLM (p53RE-bla HCT-116 cells): inactive; Viability Efficacy, No MS (p53RE-bla HCT-116 cells): inactive; Viability Efficacy, RLM (p53RE-bla HCT-116 cells): inactive
8 | [F][Sn]([c]1ccccc1)([c]1ccccc1)[c]1ccccc1 [Triphenyltin fluoride] | 73.0027 | 39.9627 | inactive | inactive | inactive | inactive | inactive | inactive | inactive | inactive | – | – | – | – | EC50 [1, 4]: 17.8 µM; EC50 [1, 5]: 7.69 µM; EC50 (p53RE-bla HCT-116 cells; [10]): 3.63 µM and 5.54 µM and 3.92 µM
9 | CCOC(=O)NC(=S)Nc1ccccc1NC(=S)NC(=O)OCC [Thiophanate] | – | – | – | – | – | – | – | – | – | – | – | – | – | – | EC50, p53 activation, cherry pick confirmation [1]: inactive; Efficacy, p53 activation, cherry pick confirmation [1]: inactive; EC50 [1, 11]: 41 µM; Emax [1, 12]: 70.2%; EC50, p53 activation, cherry pick confirmation [2]: inactive; EC50, p53 activation, primary screening [2]: inactive; Efficacy, p53 activation, cherry pick confirmation [2]: inactive; Efficacy, p53 activation, primary screening [2]: inactive; EC50, p53 activation, cherry pick confirmation [3]: inactive; EC50, p53 activation, primary screening [3]: inactive; Efficacy, p53 activation, cherry pick confirmation [3]: inactive; Efficacy, p53 activation, primary screening [3]: inactive; EC50, viability, cherry pick confirmation (p53RE-bla HCT-116 cells): inactive; EC50, viability, primary screening (p53RE-bla HCT-116 cells): inactive; Efficacy, viability, cherry pick confirmation (p53RE-bla HCT-116 cells): inactive; Efficacy, viability, primary screening (p53RE-bla HCT-116 cells): inactive
10 | O=C(c1ccccc1)c1ccccc1 [Benzophenone] | inactive | inactive | inactive | – | inactive | – | inactive | – | inactive | – | inactive | inactive | inactive | inactive | p53 activation EC50, cherry pick confirmation [1]: inactive; p53 activation EC50, primary screening [1]: inactive
11 | CCN(CC)C(=O)C(Cl)=C(C)OP(=O)(OC)OC [Phosphamidon] | – | – | – | – | – | – | – | – | – | – | – | – | – | – | p53 activation EC50, No MS [1]: inactive; p53 activation Efficacy, No MS [1]: inactive; EC50 [2]: 3.22 µM; EC50 ([2]; read-out: p53 activation EC50, RLM): 2.35 µM and 3.43 µM; p53 activation EC50, HLM [3]: inactive; EC50 [3]: 5.82 µM; Viability EC50, HLM (p53RE-bla HCT-116 cells): inactive; Viability EC50, No MS (p53RE-bla HCT-116 cells): inactive; Viability EC50, RLM (p53RE-bla HCT-116 cells): inactive; Viability Efficacy, No MS (p53RE-bla HCT-116 cells): inactive
12 | C=CCOC(Cn1ccnc1)c1ccc(Cl)cc1Cl (stereo not shown) [Imazalil] | – | – | – | – | – | – | – | – | – | – | – | – | – | – | EC50, p53 activation, cherry pick confirmation [1]: inactive; Efficacy, p53 activation, cherry pick confirmation [1]: inactive; EC50 [1, 11]: 49.6 µM; Emax [1, 12]: 41.7%; EC50, p53 activation, cherry pick confirmation [2]: inactive; EC50, p53 activation, primary screening [2]: inactive; Efficacy, p53 activation, cherry pick confirmation [2]: inactive; Efficacy, p53 activation, primary screening [2]: inactive; EC50, p53 activation, cherry pick confirmation [3]: inactive; EC50, p53 activation, primary screening [3]: inactive; Efficacy, p53 activation, cherry pick confirmation [3]: inactive; Efficacy, p53 activation, primary screening [3]: inactive; EC50, viability, cherry pick confirmation (p53RE-bla HCT-116 cells): inactive; EC50, viability, primary screening (p53RE-bla HCT-116 cells): inactive; Efficacy, viability, cherry pick confirmation (p53RE-bla HCT-116 cells): inactive; Efficacy, viability, primary screening (p53RE-bla HCT-116 cells): inactive
13 | Cc1ccc([N+](=O)[O-])c(C)c1 [1,3-Dimethyl-4-nitrobenzene] | inactive | inactive | inactive | – | inactive | – | inactive | – | inactive | – | inactive | inactive | inactive | inactive | p53 activation EC50, cherry pick confirmation [1]: inactive; p53 activation EC50, primary screening [1]: inactive
14 | CC[n+]1c(-c2ccccc2)c2cc(N)ccc2c2ccc(N)cc21 [Ethidium bromide] | – | – | inactive | inactive | inactive | inactive | inactive | inactive | inactive | inactive | inactive | inactive | inactive | inactive | EC50 [1, 6]: 5.41 µM; EC50 [1, 7]: 4.43 µM; Emax [1, 8]: 176%; Emax [1, 9]: 182%
